This is an account of results in publication PMC11588093, “MurA-catalyzed synthesis of 5-enolpyruvylshikimate-3-phosphate confers glyphosate tolerance in bryophytes” (Proceedings of the National Academy of Sciences of the …, 2024).

Data set [1] addresses T1, MpMurA (Marchantia polymorpha, UniProt A0A2R6X746).
T1 construct: gene MARPO_0032s0102; codon-optimised synthetic gene, E. coli BL21(DE3); His-tag removed with 3C protease; IMAC and SEC
T1 sequence (A0A2R6X746 46-482): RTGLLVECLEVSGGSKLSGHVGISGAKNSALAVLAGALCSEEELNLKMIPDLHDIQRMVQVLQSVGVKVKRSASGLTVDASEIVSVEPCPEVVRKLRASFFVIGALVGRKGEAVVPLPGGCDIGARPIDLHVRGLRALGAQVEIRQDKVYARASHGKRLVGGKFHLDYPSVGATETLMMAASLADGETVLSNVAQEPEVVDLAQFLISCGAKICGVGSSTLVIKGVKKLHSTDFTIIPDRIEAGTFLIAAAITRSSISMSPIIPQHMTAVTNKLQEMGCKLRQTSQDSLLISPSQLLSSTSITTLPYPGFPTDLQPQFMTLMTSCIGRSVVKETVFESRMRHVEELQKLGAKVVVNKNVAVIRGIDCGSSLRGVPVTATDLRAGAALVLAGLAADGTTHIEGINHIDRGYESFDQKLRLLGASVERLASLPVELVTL
Briefly: phosphate release by malachite green; EPSP product by LC-MS/MS. The class given is biochemical. The conditions noted are these: 1 mM S3P, 1 mM PEP; pH 7.5, 25 °C. An excerpt: phosphate release by malachite green; EPSP product by LC-MS/MS on MpMurA | Phosphate was produced by MpMurA in the presence of […] and PEP

For data set [2], the target named is T1, MpMurA. Briefly: phosphate release by malachite green. The class given is biochemical. Conditions: 1 mM UDP-GlcNAc, 1 mM PEP; pH 7.5, 25 °C.
The target in a further data set is T2, AtEPSPS (Arabidopsis thaliana, UniProt P05466).
T2 construct: gene At2g45300; codon-optimised synthetic gene, E. coli BL21(DE3); His-tag removed with 3C protease; IMAC and SEC
T2 sequence (P05466 77-520): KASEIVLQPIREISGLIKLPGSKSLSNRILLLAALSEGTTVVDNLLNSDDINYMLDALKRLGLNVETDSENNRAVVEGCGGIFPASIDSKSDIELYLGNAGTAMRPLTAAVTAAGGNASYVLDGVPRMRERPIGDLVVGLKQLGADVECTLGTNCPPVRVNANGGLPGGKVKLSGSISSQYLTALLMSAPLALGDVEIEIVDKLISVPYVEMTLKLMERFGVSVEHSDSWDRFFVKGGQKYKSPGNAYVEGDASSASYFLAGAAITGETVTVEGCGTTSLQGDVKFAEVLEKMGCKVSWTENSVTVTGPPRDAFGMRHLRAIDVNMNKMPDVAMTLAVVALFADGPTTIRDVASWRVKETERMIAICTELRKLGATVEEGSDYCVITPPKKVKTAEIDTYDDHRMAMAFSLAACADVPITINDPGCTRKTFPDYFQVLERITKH
The data set can be described thus: dose-response of enzyme activity, phosphate release by malachite green. The data set is classed as biochemical.

In the next data set the target is T3, MpEPSPS (Marchantia polymorpha, UniProt A0A2R6X5Y9).
T3 construct: gene MARPO_0034s0104; codon-optimised synthetic gene, E. coli BL21(DE3); His-tag removed with 3C protease; IMAC and SEC
T3 sequence (A0A2R6X5Y9 79-527): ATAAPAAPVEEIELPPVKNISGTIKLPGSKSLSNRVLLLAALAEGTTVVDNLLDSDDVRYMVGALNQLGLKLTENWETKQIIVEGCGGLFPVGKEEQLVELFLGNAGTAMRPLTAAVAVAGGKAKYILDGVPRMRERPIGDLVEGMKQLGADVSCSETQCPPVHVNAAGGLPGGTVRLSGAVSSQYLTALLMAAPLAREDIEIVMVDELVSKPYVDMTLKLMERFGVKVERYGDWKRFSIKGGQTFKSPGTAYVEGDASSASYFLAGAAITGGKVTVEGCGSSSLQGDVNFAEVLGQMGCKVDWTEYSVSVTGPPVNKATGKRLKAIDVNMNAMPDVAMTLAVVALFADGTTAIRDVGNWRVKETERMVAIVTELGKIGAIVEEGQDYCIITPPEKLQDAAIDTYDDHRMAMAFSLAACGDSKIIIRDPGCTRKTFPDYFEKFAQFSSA
Described as above. The class given is biochemical.

Substrate in data set [3]: C=C(OP(=O)(O)O)C(=O)O
The data set can be described thus: Michaelis-Menten kinetics, phosphate release by malachite green. The data set is classed as biochemical, Marchantia polymorpha. Conditions: co-substrate S3P, pH 7.5, 25 °C.

Substrate in data set [4]: O=C(O)C1=C[C@@H](OP(=O)(O)O)[C@@H](O)[C@H](O)C1
The data set is described as above. Conditions: co-substrate PEP, pH 7.5, 25 °C. The data set is classed as biochemical, Marchantia polymorpha.

Substrate in data set [5]: O=C(O)C1=C[C@@H](OP(=O)(O)O)[C@@H](O)[C@H](O)C1
The data set is described as above. The data set is classed as biochemical, Arabidopsis thaliana. The conditions noted are these: co-substrate PEP, pH 7.5, 25 °C.

Substrate in the data set “purified protein”: C=C(OP(=O)(O)O)C(=O)O
The data set can be described thus: purified protein. Conditions: co-substrate S3P, pH 7.5, 25 °C.

With `O=C(O)C1=C[C@@H](OP(=O)(O)O)[C@@H](O)[C@H](O)C1` [S3P], the “phosphate release by malachite green; EPSP product by LC-MS/MS” value at MpMurA [1] is “Phosphate was produced by MpMurA in the presence of S3P and PEP”.

In the case of `CC(=O)N[C@H]1[C@@H](OP(=O)(O)OP(=O)(O)OC[C@H]2O[C@@H](n3ccc(=O)[nH]c3=O)[C@H](O)[C@@H]2O)O[C@H](CO)[C@@H](O)[C@@H]1O` [UDP-GlcNAc], the “phosphate release by malachite green” value on MpMurA [2] is “the activity of MpMurA with its canonical substrates, UDP-GlcNAc and PEP, were measured”.

As a reminder, the IC50 is the concentration that inhibits the measured activity by half. Read a high IC50 as weaker potency. Regarding `O=C(O)CNCP(=O)(O)O` [glyphosate], the half-maximal inhibitory concentration (IC50) on AtEPSPS worked out at 14.5 ± 5.98 µM; against MpEPSPS it was 9.6 ± 9.12 µM.

B1: MpEPSPS (Marchantia polymorpha) (protein)
chain: T3 sequence (A0A2R6X5Y9 79-527)
notes: codon-optimised synthetic gene, E. coli BL21(DE3); His-tag removed with 3C protease; IMAC and SEC
Broadly, the Km is the substrate concentration at which the rate is half of its maximum. Take B1: the Km in data set [3] is 180 ± 26 µM; in data set [4] it was 119.7 ± 12.82 µM.

B2: AtEPSPS (Arabidopsis thaliana) (protein)
chain: T2 sequence (P05466 77-520)
notes: as for B1
On to B2, for which the Michaelis constant (Km) in data set [5] is 196.7 ± 44.63 µM; in the data set “purified protein” it was 163 ± 34 µM.
